{"source": "patent US4640922A", "about": "“3N-substituted 3,4-dihydropyrimidines as agents for treating disorders of cardiovascular system” (Suntory Limited, priority 1984, dated 1987)", "key": {"[1]": {"tested_on": "coronary artery (isolated heart)", "assay": "Coronary vascular dilative effect, isolated perfused guinea pig heart, Langendorff's method (perfusion pressure)", "conditions": "for Pharmacological data ED50: 0.1 ml injected into coronary artery, isolated guinea pig heart, 37° C., 6 ml/minute; for coronary vascular dilative effects (in words): Langendorff's method, guinea pig heart", "method": "The coronary vascular dilative effect of 3N-substituted 3,4-dihydropryrimidine derivatives was tested.\nHeartly guinea pigs (weight 400-500 g) were clubbed dead and their hearts were immediately isolated. The hearts were perfused with Krebs-Henseleit solution bubbled with a mixture of 95% O2 +5% CO2 and maintained at 37° C. at a certain rate of 6 ml/minute according to Langendorff's method [J. Pharmacol. Methods 2, 143 (1979)]. The perfusion pressure was determined by a pressure transducer. Samples were prepared by dissolving 1 mg of a test compound in 1 ml of a mixture of dimethylsulfoxide and physiological saline (1:9) and diluting with physiological saline the solution to the predetermined concentration. 0.1 ml of the diluted solution was administered into the coronary artery via a rubber tube connected to an aorta cannula to obtain ED50 (μg/heart) data as shown in Table 1. The numbers of the compounds in the Table correspond respectively to those of the working examples described above."}, "vertebral artery": {"tested_on": "vertebral artery", "assay": "Blood flow and blood vessel resistance of vertebral artery in anesthetized dogs", "type": "in vivo, dog", "conditions": "Canis lupus familiaris, iv, % of value before administration, average ± standard error", "method": "(§1) The pharmacological effects of the compounds of the present invention with respect to the blood flow and blood vessel resistance of vertebral artery and systemic blood pressure (average pressure) in anesthetized dogs. […] The first and second ribs were cut open to expose the left vertebral artery. A probe was attached to the origin of the artery and the blood flow was measured with an electromagnetic rheometer (Model MF-27, product of Nihon Koden K.K.) At the same time, continuous measurement of the following parameters was made: systemic blood pressure (average pressure) at the right femoral artery, the ECG in the second induction period, the heart beat with a tachometer driven by the R wave, and the blood vessel resistance determined by loading a multiplication/division unit (EO-601 G, product of Nihon Koden K.K.) with the average values of blood pressure and blood flow in the vertebral artery. All of these parameters were recorded simultaneously on a polygraph (RM-600, product of Nihon Koden, K.K.) All of the test compounds were injected through a cannula inserted into the femoral […]."}, "systemic blood pressure": {"tested_on": "systemic blood pressure", "assay": "Systemic blood pressure (average pressure) in anesthetized dogs", "type": "in vivo, dog", "conditions": "Canis lupus familiaris, iv, % of value before administration, average ± standard error, read-out: Average blood pressure, percentage compared with control", "method": "as §1"}, "[2]": {"conditions": "read-out: Vertebral artery blood flow, percentage compared with control"}, "[3]": {"conditions": "read-out: Vertebral artery vessel resistance, percentage compared with control"}}, "note": "Read-outs that look alike come from different tables or passages of the source."}
{"compound": "CCOC(=O)C1=C(C)N=C(C)N(C(=O)OCC)C1c1ccccc1[N+](=O)[O-]", "note": "(stereo not shown) [Compound 1, 2,6-Dimethyl-5-ethoxycarbonyl-3-N-ethoxycarbonyl-4-(2'-nitrophenyl)-3,4-dihydropyrimidine]", "values": [{"measurement": "Pharmacological data ED50", "setting": "[1]", "result": 0.055, "unit": "μg/heart"}, {"measurement": "coronary vascular dilative effects (in words)", "setting": "[1]", "result": "extremely strong coronary vascular dilative effects"}, {"measurement": "response vs control in vivo at 0.0003 mg/kg", "setting": "vertebral artery; [2]", "result": "107 ± 4", "unit": "%"}, {"measurement": "response vs control in vivo at 0.0003 mg/kg", "setting": "vertebral artery; [3]", "result": "93 ± 5", "unit": "%"}, {"measurement": "response vs control in vivo at 0.001 mg/kg", "setting": "vertebral artery; [2]", "result": "115 ± 9", "unit": "%"}, {"measurement": "response vs control in vivo at 0.001 mg/kg", "setting": "vertebral artery; [3]", "result": "89 ± 4", "unit": "%"}, {"measurement": "response vs control in vivo at 0.003 mg/kg", "setting": "vertebral artery; [2]", "result": "136 ± 6", "unit": "%"}, {"measurement": "response vs control in vivo at 0.003 mg/kg", "setting": "vertebral artery; [3]", "result": "72 ± 5", "unit": "%"}, {"measurement": "response vs control in vivo at 0.01 mg/kg", "setting": "vertebral artery; [2]", "result": "172 ± 20", "unit": "%"}, {"measurement": "response vs control in vivo at 0.01 mg/kg", "setting": "vertebral artery; [3]", "result": "55 ± 3", "unit": "%"}, {"measurement": "response vs control in vivo at 0.03 mg/kg", "setting": "vertebral artery; [2]", "result": "184 ± 26", "unit": "%"}, {"measurement": "response vs control in vivo at 0.03 mg/kg", "setting": "vertebral artery; [3]", "result": "50 ± 6", "unit": "%"}, {"measurement": "response vs control in vivo at 0.1 mg/kg", "setting": "vertebral artery; [2]", "result": 234, "unit": "%"}, {"measurement": "response vs control in vivo at 0.1 mg/kg", "setting": "vertebral artery; [3]", "result": 41, "unit": "%"}, {"measurement": "response vs control in vivo at 0.0003 mg/kg", "setting": "systemic blood pressure; 0.0003 mg/kg", "result": "94 ± 3", "unit": "%"}, {"measurement": "response vs control in vivo at 0.001 mg/kg", "setting": "systemic blood pressure", "result": "90 ± 1", "unit": "%"}, {"measurement": "response vs control in vivo at 0.003 mg/kg", "setting": "systemic blood pressure", "result": "88 ± 1", "unit": "%"}, {"measurement": "response vs control in vivo at 0.01 mg/kg", "setting": "systemic blood pressure", "result": "79 ± 3", "unit": "%"}, {"measurement": "response vs control in vivo at 0.03 mg/kg", "setting": "systemic blood pressure", "result": "74 ± 4", "unit": "%"}, {"measurement": "response vs control in vivo at 0.1 mg/kg", "setting": "systemic blood pressure", "result": 75, "unit": "%"}]}
{"compound": "CCOC(=O)C1=C(Cl)N=C(C)N(C(=O)OC)C1c1cccc([N+](=O)[O-])c1", "note": "(stereo not shown) [Compound 2, 6-Chloro-5-ethoxycarbonyl-3-N-methoxycarbonyl-2-methyl-4-(3'-nitrophenyl)-3,4-dihydropyrimidine]", "values": [{"measurement": "Pharmacological data ED50", "setting": "[1]", "result": 0.98, "unit": "μg/heart"}]}
{"compound": "CCOC(=O)C1=C(C)N=C(C)N(C(=O)OC)C1c1cccc([N+](=O)[O-])c1", "note": "(stereo not shown) [Compound 3, 2,6-Dimethyl-5-ethoxycarbonyl-3-N-methoxycarbonyl-4-(3'-nitrophenyl)-3,4-dihydropyrimidine]", "values": [{"measurement": "Pharmacological data ED50", "setting": "[1]", "result": 1.45, "unit": "μg/heart"}]}
{"compound": "CCOC(=O)C1=C(Cl)N=C(C)N(C(=O)OCC)C1c1ccccc1[N+](=O)[O-]", "note": "(stereo not shown) [Compound 4]", "values": [{"measurement": "Pharmacological data ED50", "setting": "[1]", "result": 0.25, "unit": "μg/heart"}, {"measurement": "response vs control in vivo at 0.001 mg/kg", "setting": "vertebral artery; [2]", "result": "107 ± 4", "unit": "%"}, {"measurement": "response vs control in vivo at 0.001 mg/kg", "setting": "vertebral artery; [3]", "result": "91 ± 5", "unit": "%"}, {"measurement": "response vs control in vivo at 0.003 mg/kg", "setting": "vertebral artery; [2]", "result": "113 ± 6", "unit": "%"}, {"measurement": "response vs control in vivo at 0.003 mg/kg", "setting": "vertebral artery; [3]", "result": "86 ± 7", "unit": "%"}, {"measurement": "response vs control in vivo at 0.01 mg/kg", "setting": "vertebral artery; [2]", "result": "143 ± 12", "unit": "%"}, {"measurement": "response vs control in vivo at 0.01 mg/kg", "setting": "vertebral artery; [3]", "result": "66 ± 4", "unit": "%"}, {"measurement": "response vs control in vivo at 0.03 mg/kg", "setting": "vertebral artery; [2]", "result": "147 ± 16", "unit": "%"}, {"measurement": "response vs control in vivo at 0.03 mg/kg", "setting": "vertebral artery; [3]", "result": "61 ± 5", "unit": "%"}, {"measurement": "response vs control in vivo at 0.1 mg/kg", "setting": "vertebral artery; [2]", "result": "182 ± 16", "unit": "%"}, {"measurement": "response vs control in vivo at 0.1 mg/kg", "setting": "vertebral artery; [3]", "result": "51 ± 3", "unit": "%"}, {"measurement": "response vs control in vivo at 0.001 mg/kg", "setting": "systemic blood pressure", "result": "95 ± 1", "unit": "%"}, {"measurement": "response vs control in vivo at 0.003 mg/kg", "setting": "systemic blood pressure", "result": "93 ± 1", "unit": "%"}, {"measurement": "response vs control in vivo at 0.01 mg/kg", "setting": "systemic blood pressure", "result": "91 ± 2", "unit": "%"}, {"measurement": "response vs control in vivo at 0.03 mg/kg", "setting": "systemic blood pressure", "result": "88 ± 1", "unit": "%"}, {"measurement": "response vs control in vivo at 0.1 mg/kg", "setting": "systemic blood pressure", "result": "84 ± 2", "unit": "%"}]}
{"compound": "CCOC(=O)C1=C(C)N=C(C)N(C(=O)OC)C1c1ccccc1[N+](=O)[O-]", "note": "(stereo not shown) [Compound 5]", "values": [{"measurement": "Pharmacological data ED50", "setting": "[1]", "result": 0.066, "unit": "μg/heart"}, {"measurement": "coronary vascular dilative effects (in words)", "setting": "[1]", "result": "extremely strong coronary vascular dilative effects"}]}
{"compound": "CCOC(=O)C1=C(Cl)N=C(C)N(C(=O)OC)C1c1ccccc1[N+](=O)[O-]", "note": "(stereo not shown) [Compound 6]", "values": [{"measurement": "Pharmacological data ED50", "setting": "[1]", "result": 0.70, "unit": "μg/heart"}]}
{"compound": "CCOC(=O)N1C(C)=NC(C)=C(C(=O)OC)C1c1ccccc1[N+](=O)[O-]", "note": "(stereo not shown) [Compound 7]", "values": [{"measurement": "Pharmacological data ED50", "setting": "[1]", "result": 0.40, "unit": "μg/heart"}]}
{"compound": "CCOC(=O)C1=C(C)N=C(C)N(C(=O)OCC)C1c1ccccc1Br", "note": "(stereo not shown) [Compound 8]", "values": [{"measurement": "Pharmacological data ED50", "setting": "[1]", "result": 0.033, "unit": "μg/heart"}, {"measurement": "coronary vascular dilative effects (in words)", "setting": "[1]", "result": "extremely strong coronary vascular dilative effects"}, {"measurement": "response vs control in vivo at 0.001 mg/kg", "setting": "vertebral artery; [2]", "result": 110, "unit": "%"}, {"measurement": "response vs control in vivo at 0.001 mg/kg", "setting": "vertebral artery; [3]", "result": 89, "unit": "%"}, {"measurement": "response vs control in vivo at 0.003 mg/kg", "setting": "vertebral artery; [2]", "result": 117, "unit": "%"}, {"measurement": "response vs control in vivo at 0.003 mg/kg", "setting": "vertebral artery; [3]", "result": 81, "unit": "%"}, {"measurement": "response vs control in vivo at 0.01 mg/kg", "setting": "vertebral artery; [2]", "result": 140, "unit": "%"}, {"measurement": "response vs control in vivo at 0.01 mg/kg", "setting": "vertebral artery; [3]", "result": 64, "unit": "%"}, {"measurement": "response vs control in vivo at 0.03 mg/kg", "setting": "vertebral artery; [2]", "result": 182, "unit": "%"}, {"measurement": "response vs control in vivo at 0.03 mg/kg", "setting": "vertebral artery; [3]", "result": 48, "unit": "%"}, {"measurement": "response vs control in vivo at 0.1 mg/kg", "setting": "vertebral artery; [2]", "result": 211, "unit": "%"}, {"measurement": "response vs control in vivo at 0.1 mg/kg", "setting": "vertebral artery; [3]", "result": 40, "unit": "%"}, {"measurement": "response vs control in vivo at 0.001 mg/kg", "setting": "systemic blood pressure", "result": 93, "unit": "%"}, {"measurement": "response vs control in vivo at 0.003 mg/kg", "setting": "systemic blood pressure", "result": 87, "unit": "%"}, {"measurement": "response vs control in vivo at 0.01 mg/kg", "setting": "systemic blood pressure", "result": 81, "unit": "%"}, {"measurement": "response vs control in vivo at 0.03 mg/kg", "setting": "systemic blood pressure", "result": 83, "unit": "%"}, {"measurement": "response vs control in vivo at 0.1 mg/kg", "setting": "systemic blood pressure", "result": 79, "unit": "%"}]}
{"compound": "CCOC(=O)N1C(C)=NC(Cl)=C(C(=O)OC)C1c1ccccc1[N+](=O)[O-]", "note": "(stereo not shown) [Compound 9]", "values": [{"measurement": "Pharmacological data ED50", "setting": "[1]", "result": 0.78, "unit": "μg/heart"}]}
{"compound": "COC(=O)C1=C(Cl)N=C(C)N(C(=O)OC)C1c1ccccc1[N+](=O)[O-]", "note": "(stereo not shown) [Compound 11]", "values": [{"measurement": "Pharmacological data ED50", "setting": "[1]", "result": 1.65, "unit": "μg/heart"}]}
